Tested on: monoclonal antibodies to morphine (morp Ab)
Test: Crosstalk inhibitor test: colloidal gold ligand analogue conjugate binding at the morp Ab zone of a nylon membrane (color density DE*)
Conditions: 5 μl (1.1 μmol) inhibitor, Table 3 #6 vs #1

O=C(O)CCCCCNC(=O)C1CCC(CN2C(=O)CC(SCCC(=O)O)C2=O)CC1 (stereo not shown) [CCM-MPA]
decrease of the morphine response: about 30%

Source: patent US6777190B1, “Crosstalk inhibitors and their uses” (Biosite, Inc., priority 1991, dated 2004)
